Results published in patent US9993459B2, “Selective HDAC6 inhibitors and uses thereof” (Universiteit Gent, priority 2015, dated 2018).
Where “and” joins values, the source holds several entries; their conditions need not be identical. Equal values may be shown once. Read-outs that look alike come from different tables or passages of the source.

Legend:
HDAC6 = molecular target: T1, HDAC6 (Homo sapiens, UniProt Q9UBN7); test: In vitro HDAC6 inhibition; type: biochemical; details: for inhibition at 10 µM: HDAC6, 10 μM
T1 sequence (Q9UBN7 1-1215): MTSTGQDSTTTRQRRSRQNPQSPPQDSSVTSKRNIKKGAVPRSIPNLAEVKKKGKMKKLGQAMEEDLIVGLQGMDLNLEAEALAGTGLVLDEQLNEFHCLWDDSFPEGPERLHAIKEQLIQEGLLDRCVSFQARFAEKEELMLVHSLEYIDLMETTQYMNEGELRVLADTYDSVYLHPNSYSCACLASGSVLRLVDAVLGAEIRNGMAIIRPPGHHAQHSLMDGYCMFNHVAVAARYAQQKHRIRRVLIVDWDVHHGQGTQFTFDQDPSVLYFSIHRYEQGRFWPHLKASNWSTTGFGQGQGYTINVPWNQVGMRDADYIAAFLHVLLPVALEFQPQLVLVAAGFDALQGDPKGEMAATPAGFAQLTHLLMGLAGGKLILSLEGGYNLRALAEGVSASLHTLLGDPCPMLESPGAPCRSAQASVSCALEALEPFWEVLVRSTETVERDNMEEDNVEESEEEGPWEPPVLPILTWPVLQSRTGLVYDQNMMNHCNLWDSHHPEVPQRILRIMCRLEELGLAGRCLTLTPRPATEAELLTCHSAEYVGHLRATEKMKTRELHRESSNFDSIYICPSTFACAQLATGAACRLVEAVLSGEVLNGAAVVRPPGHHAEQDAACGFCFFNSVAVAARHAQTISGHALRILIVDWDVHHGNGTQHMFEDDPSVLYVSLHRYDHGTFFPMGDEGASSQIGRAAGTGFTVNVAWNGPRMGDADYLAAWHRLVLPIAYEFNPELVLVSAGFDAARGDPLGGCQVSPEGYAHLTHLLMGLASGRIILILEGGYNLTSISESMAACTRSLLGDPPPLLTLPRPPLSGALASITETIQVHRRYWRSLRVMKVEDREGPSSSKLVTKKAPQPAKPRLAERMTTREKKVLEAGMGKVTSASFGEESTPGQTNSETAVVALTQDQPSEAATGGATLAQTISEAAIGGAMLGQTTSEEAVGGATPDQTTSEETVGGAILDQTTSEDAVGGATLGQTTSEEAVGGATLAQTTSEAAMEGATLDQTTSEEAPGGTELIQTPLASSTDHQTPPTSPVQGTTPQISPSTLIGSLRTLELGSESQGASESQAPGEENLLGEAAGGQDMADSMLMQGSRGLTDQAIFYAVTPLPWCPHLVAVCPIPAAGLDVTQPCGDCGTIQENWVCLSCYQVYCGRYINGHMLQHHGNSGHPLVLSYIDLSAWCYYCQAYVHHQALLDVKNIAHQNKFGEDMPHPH

HDAC1 = HDAC1 (Homo sapiens, UniProt Q13547); test: In vitro HDAC isozyme selectivity screen: HDAC1; type: biochemical; details: for IC50: Table 2
HDAC1, sequence (Q13547 whole entry, species assumed): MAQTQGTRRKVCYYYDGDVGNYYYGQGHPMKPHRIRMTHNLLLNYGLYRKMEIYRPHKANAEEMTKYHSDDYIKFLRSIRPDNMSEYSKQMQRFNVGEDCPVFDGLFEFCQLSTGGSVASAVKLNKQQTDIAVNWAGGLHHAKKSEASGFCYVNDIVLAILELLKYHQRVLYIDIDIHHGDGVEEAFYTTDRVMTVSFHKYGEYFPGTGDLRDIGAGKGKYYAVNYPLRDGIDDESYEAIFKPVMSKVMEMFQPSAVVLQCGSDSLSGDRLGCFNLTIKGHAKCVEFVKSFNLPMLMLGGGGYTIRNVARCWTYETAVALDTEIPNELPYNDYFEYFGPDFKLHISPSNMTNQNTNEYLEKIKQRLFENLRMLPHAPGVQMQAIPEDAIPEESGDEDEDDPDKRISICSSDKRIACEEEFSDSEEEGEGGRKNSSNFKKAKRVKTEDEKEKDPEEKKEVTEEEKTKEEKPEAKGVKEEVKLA

HDAC2 = HDAC2 (Homo sapiens, UniProt Q92769); test: In vitro HDAC isozyme selectivity screen: HDAC2; type: biochemical; details: for IC50: Table 2
HDAC2, sequence (Q92769 whole entry, species assumed): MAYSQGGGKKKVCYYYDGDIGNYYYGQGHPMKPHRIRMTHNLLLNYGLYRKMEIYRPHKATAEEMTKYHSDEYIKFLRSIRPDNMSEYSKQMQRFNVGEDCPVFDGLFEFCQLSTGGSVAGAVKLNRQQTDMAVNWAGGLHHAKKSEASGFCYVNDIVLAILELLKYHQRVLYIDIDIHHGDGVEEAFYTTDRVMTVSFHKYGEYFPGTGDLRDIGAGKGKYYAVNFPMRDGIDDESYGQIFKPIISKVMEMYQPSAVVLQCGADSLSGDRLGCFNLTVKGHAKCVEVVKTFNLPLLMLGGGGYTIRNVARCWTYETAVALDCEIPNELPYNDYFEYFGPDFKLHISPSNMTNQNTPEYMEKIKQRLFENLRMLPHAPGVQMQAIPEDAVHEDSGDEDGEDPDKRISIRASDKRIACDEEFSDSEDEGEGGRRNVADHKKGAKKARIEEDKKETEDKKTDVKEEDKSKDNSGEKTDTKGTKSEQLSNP

HDAC5 = HDAC5 (Homo sapiens, UniProt Q9UQL6); test: In vitro HDAC isozyme selectivity screen: HDAC5; type: biochemical; details: for IC50: Table 2
HDAC5, sequence (Q9UQL6 whole entry, species assumed): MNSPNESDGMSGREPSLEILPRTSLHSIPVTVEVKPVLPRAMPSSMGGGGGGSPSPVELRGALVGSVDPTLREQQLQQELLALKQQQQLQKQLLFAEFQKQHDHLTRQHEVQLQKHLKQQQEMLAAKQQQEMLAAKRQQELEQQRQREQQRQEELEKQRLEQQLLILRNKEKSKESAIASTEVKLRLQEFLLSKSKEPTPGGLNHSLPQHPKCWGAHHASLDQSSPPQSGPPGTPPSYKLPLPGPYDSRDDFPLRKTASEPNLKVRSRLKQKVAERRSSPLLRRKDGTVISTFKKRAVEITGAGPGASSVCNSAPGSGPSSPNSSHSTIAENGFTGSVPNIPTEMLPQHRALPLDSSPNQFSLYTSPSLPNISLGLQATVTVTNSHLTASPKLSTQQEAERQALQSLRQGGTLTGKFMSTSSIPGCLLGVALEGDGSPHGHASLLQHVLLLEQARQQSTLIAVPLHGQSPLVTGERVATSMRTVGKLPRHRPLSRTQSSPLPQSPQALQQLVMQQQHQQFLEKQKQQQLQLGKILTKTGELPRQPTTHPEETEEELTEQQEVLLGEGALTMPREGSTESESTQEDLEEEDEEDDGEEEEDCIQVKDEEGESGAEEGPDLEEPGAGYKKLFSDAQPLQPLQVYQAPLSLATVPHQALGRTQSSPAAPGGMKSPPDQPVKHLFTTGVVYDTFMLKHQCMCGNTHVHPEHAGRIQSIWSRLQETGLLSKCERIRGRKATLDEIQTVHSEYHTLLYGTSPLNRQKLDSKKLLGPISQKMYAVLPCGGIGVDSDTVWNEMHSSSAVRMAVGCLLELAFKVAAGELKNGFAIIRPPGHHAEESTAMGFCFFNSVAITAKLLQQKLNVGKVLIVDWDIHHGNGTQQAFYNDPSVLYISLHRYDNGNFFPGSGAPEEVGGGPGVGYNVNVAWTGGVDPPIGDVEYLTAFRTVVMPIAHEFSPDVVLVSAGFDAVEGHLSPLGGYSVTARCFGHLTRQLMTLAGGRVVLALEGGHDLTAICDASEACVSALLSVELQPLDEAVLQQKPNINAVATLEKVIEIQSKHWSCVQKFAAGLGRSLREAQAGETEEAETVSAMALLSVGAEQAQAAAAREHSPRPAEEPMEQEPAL

HDAC11 = molecular target: T2, HDAC11 (Homo sapiens, UniProt Q96DB2); test: In vitro HDAC isozyme selectivity screen: HDAC11; type: biochemical; details: Table 2
T2 sequence (Q96DB2 1-347): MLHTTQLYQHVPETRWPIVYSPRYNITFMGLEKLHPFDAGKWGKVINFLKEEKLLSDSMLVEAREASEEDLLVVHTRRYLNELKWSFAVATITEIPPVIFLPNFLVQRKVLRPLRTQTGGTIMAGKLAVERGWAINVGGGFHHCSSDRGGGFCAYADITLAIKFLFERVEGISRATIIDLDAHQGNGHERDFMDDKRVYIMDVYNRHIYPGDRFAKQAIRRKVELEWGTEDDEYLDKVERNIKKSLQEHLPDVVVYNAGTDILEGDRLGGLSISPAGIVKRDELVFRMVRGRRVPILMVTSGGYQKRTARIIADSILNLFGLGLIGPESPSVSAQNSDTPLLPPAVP

[1] = test system: acetylation of α-tubulin in Neuro-2a cells; test: Acetylation level of α-tubulin in Neuro-2a cells (Western blot); type: cell-based, Mouse; details: for normalized ratio Acetyl α-Tubulin/α-Tubulin against Tubastatin A, Average: Average of N = 1 to 4; for effect on the acetylation level of α-tubulin compared with Tubastatin A: Neuro-2a cells, in words
Procedure: FIG. 1: Potency of inhibiting HDAC6 by compounds 7a, 7b and 13a in Neuro-2a cells. A. Cells were treated overnight with different concentrations of the HDAC6 inhibitors and blotted of the acetylation of α-tubulin.
Mouse neuroblastoma (Neuro-2a) cells were grown in a 1:1 mix of D-MEM (Dulbecco's Modified Eagle Medium) and F12 medium supplemented with glutamax (Invitrogen), 100 μg/ml streptomycin, 100 U/ml penicillin (Invitrogen), 10% fetal calf serum (Greiner Bio-one), 1% non-essential amino acids (Invitrogen) and 1.6% NaHCO3 (Invitrogen) at 37° C. and 7.5% CO2. To split the cells, cells were washed with Versene (Invitrogen) and dissociated with 0.05% Trypsine-EDTA (Invitrogen).
For sodium dodecyl sulfate-polyacrylamide gel electrophoresis (SDS-PAGE) analysis, transfected cells were collected using the EpiQuik Total Histone Extraction Kit (EpiGentek) according to manufacturer's instructions. Protein concentrations were determined using microBCA kit (Thermo Fisher Scientific Inc., Pittsburgh, Pa., USA) according to manufacturer's instructions. Before resolving the samples on a 12% SDS-PAGE gel, samples containing equal amounts of protein were supplemented with reducing sample buffer (Thermo Scientific) and boiled at 95° C. for 5 min. After electrophoresis, the proteins were transferred to a polyvinylidene difluoride (PVDF) membrane (Millipore Corp., Bedford, Mass., USA). The non-specific binding was blocked by incubation of the membrane in 5% bovine serum albumin (BSA), diluted in Tris Buffered Saline Tween (TBST, 50 mM TRIS, 150 mM NaCl, 0.1% Tween-20 (Applichem, Darmstadt, Duitsland) for 1 h at room temperature followed by incubation with primary antibodies overnight. The antibodies, diluted in TBS-T, were directed against α-tubulin (1/5000, T6199, Sigma-Aldrich), and acetylated α-tubulin (1/5000, T6793 monoclonal, Sigma-Aldrich). The secondary antibodies, coupled to alkaline phosphatase (anti-mouse or anti-rabbit, 1/5000, Sigma-Aldrich) were used. Blots were visualised by adding the ECF substrate (Enhanced Chemical Fluorescence, GE Healthcare, Uppsala, Sweden) and imaged with the ImageQuant_LAS 4000. A mild reblotting buffer (Millipore) was applied to strip the blots. ImageQuant TL version 7.0-software was used to quantify the blots.
Neuro-2a cells were treated overnight with different concentrations of the HDAC6 inhibitors and the effect on the acetylation level of α-tubulin was determined using Western blots (FIG. 1).

Row | inhibition at 10 µM (HDAC6) [%] | IC50 (HDAC6; HDAC6, Table 1, read-out: IC50) [µM] | IC50 (HDAC2) [µM] | IC50 (HDAC5) [µM] | IC50 (HDAC11) [µM] | IC50 (HDAC6; Table 2, read-out: IC50 HDAC6) [µM] | effect at 100 μM, HDAC1 (HDAC1; 100 μM) | effect at 100 μM, HDAC2 (HDAC2; 100 μM) | effect at 100 μM, HDAC5 (HDAC5; 100 μM) | SMILES | IC50 (HDAC1) [µM] | normalized ratio Acetyl α-Tubulin/α-Tubulin against Tubastatin A, Average ([1]; 10 nM, overnight, Neuro-2a) | normalized ratio Acetyl α-Tubulin/α-Tubulin against Tubastatin A, Average ([1]; 50 nM, overnight, Neuro-2a) | normalized ratio Acetyl α-Tubulin/α-Tubulin against Tubastatin A, Average ([1]; 100 nM, overnight, Neuro-2a) | normalized ratio Acetyl α-Tubulin/α-Tubulin against Tubastatin A, Average ([1]; 500 nM, overnight, Neuro-2a) | normalized ratio Acetyl α-Tubulin/α-Tubulin against Tubastatin A, Average ([1]; 1 μM, overnight, Neuro-2a) | effect on the acetylation level of α-tubulin compared with Tubastatin A [1] | normalized ratio Acetyl α-Tubulin/α-Tubulin against Tubastatin A ([1]; 1 μM, overnight, Neuro-2a, single experiments N = 1 to 4, Tub A 1 μM = 100)
1 | 99.2 | 0.037 | > 100 | > 100 | 15 | 0.037 | less than 50% | less than 50% | less than 50% | O=C(NO)c1ccc(NCc2csc3ccc(Br)cc23)cc1 [Compound 7b, 5-bromo-3-[(4-hydroxycarbamoylphenyl)aminomethyl]-benzothiophene] | – | 8.35 | 15.75 | 27.24 | 63.70 | 83.19 | same effect on the acetylation level of α-tubulin as Tubastatin A | 99.53 and 83.22 and 69.97 and 80.03
2 | 99.3 | 0.064 | 20 | 45 | 1.2 | – | – | – | – | O=C(NO)c1ccc(NCc2csc3cc(Br)ccc23)cc1 [Compound 13a, 6-bromo-3-[(4-hydroxycarbamoylphenyl)aminomethyl]-benzothiophene] | 3.4 | 8.35 | 13.93 | 23.21 | 69.97 | 80.44 | – | –

Row | SMILES | inhibition at 10 µM (HDAC6) [%] | IC50 (HDAC6; HDAC6, Table 1, read-out: IC50) [µM] | IC50 (HDAC2) [µM] | IC50 (HDAC5) [µM] | IC50 (HDAC11) [µM] | IC50 (HDAC6; Table 2, read-out: IC50 HDAC6) [µM] | effect at 100 μM, HDAC1 (HDAC1; 100 μM) | effect at 100 μM, HDAC2 (HDAC2; 100 μM) | effect at 100 μM, HDAC5 (HDAC5; 100 μM) | IC50 (HDAC1) [µM] | normalized ratio Acetyl α-Tubulin/α-Tubulin against Tubastatin A, Average ([1]; 10 nM, overnight, Neuro-2a) | normalized ratio Acetyl α-Tubulin/α-Tubulin against Tubastatin A, Average ([1]; 50 nM, overnight, Neuro-2a) | normalized ratio Acetyl α-Tubulin/α-Tubulin against Tubastatin A, Average ([1]; 100 nM, overnight, Neuro-2a) | normalized ratio Acetyl α-Tubulin/α-Tubulin against Tubastatin A, Average ([1]; 500 nM, overnight, Neuro-2a) | normalized ratio Acetyl α-Tubulin/α-Tubulin against Tubastatin A, Average ([1]; 1 μM, overnight, Neuro-2a) | effect on the acetylation level of α-tubulin compared with Tubastatin A [1] | normalized ratio Acetyl α-Tubulin/α-Tubulin against Tubastatin A ([1]; 1 μM, overnight, Neuro-2a, single experiments N = 1 to 4, Tub A 1 μM = 100)
3 | O=C(NO)c1ccc(NCc2csc3ccccc23)cc1 [Compound 7a, 3-[(4-hydroxycarbamoylphenyl)aminomethyl]benzothiophene] | 99.8 | 0.014 | 30 | 17 | 31 | – | – | – | – | 7.5 | 24.02 | 46.70 | 67.40 | 139.23 | 90.45 | same effect on the acetylation level of α-tubulin as Tubastatin A | –
